Source: ChEMBL document CHEMBL3860037, “Design, synthesis and biological characterization of a new class of osteogenic (1H)-quinolone derivatives” (Eur J Med Chem, 2016)
Active and inactive are the calls of the source. No cut-off for these calls is given here.

What was measured:
[1] = target: Protein smoothened (Mus musculus) (UniProt P56726); assay: Potency index, ratio of GSA-10 EC50 to compound EC50 for activity at Smo in mouse C3H10T1/2 cells assessed as induction of cell differentiation into osteoblast; type: cell-based; settings: C3H 10T1/2
[2] = target: Protein smoothened (Mus musculus) (UniProt P56726); assay: Agonist activity at Smo in mouse C3H10T1/2 cells assessed as effect on Ptc1 expression at 10 uM after 48 hrs by RT-PCR method relative to vehicle-treated control; type: cell-based; settings: C3H 10T1/2
[3] = target: Protein smoothened (Mus musculus) (UniProt P56726); assay: Agonist activity at Smo in mouse C3H10T1/2 cells assessed as effect on Gli3 expression at 10 uM after 48 hrs by RT-PCR method relative to vehicle-treated control; type: cell-based; settings: C3H 10T1/2
[4] = target: Protein smoothened (Mus musculus) (UniProt P56726); assay: Agonist activity at Smo in mouse C3H10T1/2 cells assessed as effect on Gli1 expression at 10 uM after 48 hrs by RT-PCR method relative to vehicle-treated control; type: cell-based; settings: C3H 10T1/2
[5] = target: Protein smoothened (Mus musculus) (UniProt P56726); assay: Activity at Smo in mouse C3H10T1/2 cells assessed as induction of cell differentiation into osteoblast at 0.3 uM in presence of phosphodiesterase inhibitor IBMX incubated for 6 days by alkaline phosphatase assay; type: cell-based; settings: C3H 10T1/2
[6] = target: Protein smoothened (Mus musculus) (UniProt P56726); assay: Activity at Smo in mouse C3H10T1/2 cells assessed as induction of cell differentiation into osteoblast at 10 uM incubated for 6 days by alkaline phosphatase assay relative to GSA-10; type: cell-based; settings: C3H 10T1/2
[7] = target: T1, Coelenterazine h 2-monooxygenase (Renilla reniformis) (UniProt P27652); assay: Induction of Renilla reniformis luciferase activity at 10 uM relative to control
T1 sequence (whole entry): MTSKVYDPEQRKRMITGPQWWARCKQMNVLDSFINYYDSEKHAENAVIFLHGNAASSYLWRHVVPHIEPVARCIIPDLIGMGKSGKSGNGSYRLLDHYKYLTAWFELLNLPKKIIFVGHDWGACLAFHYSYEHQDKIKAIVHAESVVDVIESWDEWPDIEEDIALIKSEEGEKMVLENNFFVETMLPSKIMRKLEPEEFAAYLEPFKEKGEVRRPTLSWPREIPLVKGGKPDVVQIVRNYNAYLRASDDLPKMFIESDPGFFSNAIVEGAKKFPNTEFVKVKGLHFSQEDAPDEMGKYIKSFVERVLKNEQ

[8] = target: Protein smoothened (Mus musculus) (UniProt P56726); assay: Agonist activity at Smo in mouse C3H10T1/2 cells assessed as effect on Smo expression at 10 uM after 48 hrs by RT-PCR method relative to vehicle-treated control; type: cell-based; settings: C3H 10T1/2
[9] = target: Protein smoothened (Mus musculus) (UniProt P56726); assay: Activity at Smo in mouse C3H10T1/2 cells assessed as induction of cell differentiation into osteoblast incubated for 6 days by alkaline phosphatase assay; type: cell-based; settings: C3H 10T1/2
[10] = target: Protein smoothened (Mus musculus) (UniProt P56726); assay: Antagonist activity at Smo in mouse NIH/3T3 cells transfected with Gli-dependent firefly luciferase reporter assessed as inhibition of SAG-induced maximal stimulation of Gli transcription factor at 1 uM incubated for 40 hrs relative to control; type: cell-based
[11] = target: Protein smoothened (Mus musculus) (UniProt P56726); assay: Agonist activity at Smo in mouse C3H10T1/2 cells assessed as effect on Gli2 expression at 10 uM after 48 hrs by RT-PCR method relative to vehicle-treated control; type: cell-based; settings: C3H 10T1/2
[12] = target: Protein smoothened (Mus musculus) (UniProt P56726); assay: Activity at Smo in mouse C3H10T1/2 cells assessed as induction of cell differentiation into osteoblast at 0.3 uM in presence of adenylate cyclase activator forskolin incubated for 6 days by alkaline phosphatase assay; type: cell-based; settings: C3H 10T1/2
[13] = target: Protein smoothened (Mus musculus) (UniProt P56726); assay: Induction of Smo translocation to primary cilium in mouse NIH/3T3 cells at 1 uM after overnight incubation by DAPI staining-based immunofluorescence assay relative to control; type: cell-based
[14] = target: Protein smoothened (Mus musculus) (UniProt P56726); assay: Agonist activity at Smo in mouse C3H10T1/2 cells assessed as induction of cell differentiation into osteoblast incubated for 6 days by alkaline phosphatase assay; type: cell-based; settings: C3H 10T1/2
[15] = target: Protein smoothened (Rattus norvegicus) (UniProt P97698); assay: Agonist activity at Smo in cerebellar granule cell precursors isolated from rat at postnatal day 8 assessed as stimulation of proliferation by [3H]-thymidine incorporation assay
[16] = target: Protein smoothened (Mus musculus) (UniProt P56726); assay: Agonist activity at Smo in mouse C3H10T1/2 cells assessed as effect on Ptc1 expression at 1 uM after 48 hrs by RT-PCR method relative to vehicle-treated control; type: cell-based; settings: C3H 10T1/2
Protein smoothened = Protein smoothened (Mus musculus, UniProt P56726); assay: Agonist activity at Smo in mouse NIH/3T3 cells transfected with Gli-dependent firefly luciferase reporter assessed as stimulation of Gli transcription factor; type: cell-based
[17] = target: Protein smoothened (Mus musculus) (UniProt P56726); assay: Agonist activity at Smo in mouse C3H10T1/2 cells assessed as effect on Gli1 expression at 1 uM after 48 hrs by RT-PCR method relative to vehicle-treated control; type: cell-based; settings: C3H 10T1/2
[18] = target: Protein smoothened (Mus musculus) (UniProt P56726); assay: Agonist activity at Smo in mouse C3H10T1/2 cells assessed as effect on Smo expression at 1 uM after 48 hrs by RT-PCR method relative to vehicle-treated control; type: cell-based; settings: C3H 10T1/2
[19] = target: Protein smoothened (Mus musculus) (UniProt P56726); assay: Agonist activity at Smo in mouse C3H10T1/2 cells assessed as induction of cell differentiation into osteoblast at 10 uM incubated for 6 days by alkaline phosphatase assay relative to GSA-10; type: cell-based; settings: C3H 10T1/2
[20] = target: Protein smoothened (Mus musculus) (UniProt P56726); assay: Agonist activity at Smo in mouse C3H10T1/2 cells assessed as effect on Gli2 expression at 1 uM after 48 hrs by RT-PCR method relative to vehicle-treated control; type: cell-based; settings: C3H 10T1/2
[21] = target: Protein smoothened (Mus musculus) (UniProt P56726); assay: Agonist activity at Smo in mouse NIH/3T3 cells transfected with Gli-dependent firefly luciferase reporter assessed as stimulation of Gli transcription factor incubated for 40 hrs; type: cell-based
[22] = target: Protein smoothened (Mus musculus) (UniProt P56726); assay: Agonist activity at Smo in mouse C3H10T1/2 cells assessed as effect on Gli3 expression at 1 uM after 48 hrs by RT-PCR method relative to vehicle-treated control; type: cell-based; settings: C3H 10T1/2
[23] = target: Protein smoothened (Mus musculus) (UniProt P56726); assay: Activity at Smo in mouse C3H10T1/2 cells assessed as induction of cell differentiation into osteoblast at 1 uM in presence of phosphodiesterase inhibitor IBMX incubated for 6 days by alkaline phosphatase assay; type: cell-based; settings: C3H 10T1/2
[24] = target: Protein smoothened (Mus musculus) (UniProt P56726); assay: Activity at Smo in mouse C3H10T1/2 cells assessed as induction of cell differentiation into osteoblast at 1 uM in presence of adenylate cyclase activator forskolin incubated for 6 days by alkaline phosphatase assay; type: cell-based; settings: C3H 10T1/2

Sequence of Protein smoothened (Mus musculus) (P56726 whole entry): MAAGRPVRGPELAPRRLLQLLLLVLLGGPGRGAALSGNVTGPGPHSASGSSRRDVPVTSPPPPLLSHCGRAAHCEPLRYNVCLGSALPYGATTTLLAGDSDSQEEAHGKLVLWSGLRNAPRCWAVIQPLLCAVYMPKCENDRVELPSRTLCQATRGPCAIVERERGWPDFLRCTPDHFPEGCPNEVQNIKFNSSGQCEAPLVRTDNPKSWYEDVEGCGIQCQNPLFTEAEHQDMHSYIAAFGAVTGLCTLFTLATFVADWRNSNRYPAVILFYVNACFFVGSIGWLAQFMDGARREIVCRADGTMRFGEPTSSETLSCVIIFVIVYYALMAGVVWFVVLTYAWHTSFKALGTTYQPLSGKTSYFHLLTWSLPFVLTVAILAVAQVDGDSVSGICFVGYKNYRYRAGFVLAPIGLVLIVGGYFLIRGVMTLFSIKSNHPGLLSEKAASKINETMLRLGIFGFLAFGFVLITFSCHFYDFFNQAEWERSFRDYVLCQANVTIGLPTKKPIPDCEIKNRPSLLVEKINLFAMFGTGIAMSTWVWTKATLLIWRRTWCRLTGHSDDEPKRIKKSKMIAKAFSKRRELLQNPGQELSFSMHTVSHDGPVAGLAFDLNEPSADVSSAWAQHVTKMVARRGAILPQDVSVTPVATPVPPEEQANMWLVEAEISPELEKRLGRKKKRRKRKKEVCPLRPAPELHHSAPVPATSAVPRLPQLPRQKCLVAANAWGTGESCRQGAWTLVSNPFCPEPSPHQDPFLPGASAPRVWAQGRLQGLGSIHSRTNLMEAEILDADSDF
Sequence of Protein smoothened (P56726 whole entry): as above
Sequence of Protein smoothened (Rattus norvegicus) (P97698 whole entry): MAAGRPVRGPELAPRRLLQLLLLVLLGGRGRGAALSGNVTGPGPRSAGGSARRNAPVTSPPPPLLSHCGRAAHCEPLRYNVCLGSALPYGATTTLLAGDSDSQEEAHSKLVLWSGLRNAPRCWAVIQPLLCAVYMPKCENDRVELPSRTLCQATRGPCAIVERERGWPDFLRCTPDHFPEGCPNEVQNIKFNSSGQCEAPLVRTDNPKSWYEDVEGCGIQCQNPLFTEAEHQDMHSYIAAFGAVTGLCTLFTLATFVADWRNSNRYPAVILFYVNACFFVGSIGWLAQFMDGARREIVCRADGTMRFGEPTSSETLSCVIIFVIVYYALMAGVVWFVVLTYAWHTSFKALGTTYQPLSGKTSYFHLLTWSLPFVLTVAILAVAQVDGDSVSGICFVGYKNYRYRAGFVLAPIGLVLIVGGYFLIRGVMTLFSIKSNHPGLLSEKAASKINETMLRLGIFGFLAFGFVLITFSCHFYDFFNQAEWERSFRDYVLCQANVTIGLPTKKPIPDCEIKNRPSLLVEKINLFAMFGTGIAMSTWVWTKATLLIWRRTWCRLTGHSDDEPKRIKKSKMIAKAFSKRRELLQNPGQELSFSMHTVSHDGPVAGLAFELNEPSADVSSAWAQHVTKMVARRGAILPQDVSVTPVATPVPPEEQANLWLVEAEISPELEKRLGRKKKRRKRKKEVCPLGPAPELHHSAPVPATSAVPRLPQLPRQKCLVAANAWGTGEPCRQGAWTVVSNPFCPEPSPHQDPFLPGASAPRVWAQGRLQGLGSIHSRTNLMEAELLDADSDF

CCCCCCn1c(=O)c(C(=O)Nc2ccc(C(=O)O)cc2)c(O)c2ccccc21
Ratio EC50 [1]: 2 | fold change (FC) [2]: 0.26 | fold change (FC) [3]: 0.98 | fold change (FC) [4]: 0.05 | Activity [5]: Active | max activation [6]: 137% | Activity [7]: < 20% | fold change (FC) [8]: 0.92 | Activity [9]: Dose-dependent effect | inhibition [10]: 26% | fold change (FC) [11]: 1.63 | Activity [12]: Active

CN[C@H]1CC[C@H](N(Cc2cccc(-c3ccncc3)c2)C(=O)c2sc3ccccc3c2Cl)CC1
Activity [13]: > 60% | Activity [14]: Dose-dependent effect | Activity [15]: Active | fold change (FC) [16]: 5.32 | EC50 (Protein smoothened): 30 nM | fold change (FC) [17]: 7.83 | fold change (FC) [18]: 0.9 | Activity [7]: < 20% | max activation [19]: 75% | fold change (FC) [20]: 1.24 | Activity [21]: Active | fold change (FC) [22]: 0.72

CCCCCn1c(=O)c(C(=O)Nc2ccc([N+](=O)[O-])cc2O)c(O)c2ccccc21
max activation [6]: 3%

CCCCCCn1c(=O)c(C(=O)Nc2nc(CC(=O)OCC)cs2)c(O)c2ccccc21
max activation [6]: 3%

CCCCCCn1c(=O)c(C(=O)Nc2ccc(C(=O)OCCC)cc2)c(O)c2ccccc21
Activity [23]: Active | fold change (FC) [2]: 0.33 | fold change (FC) [3]: 0.85 | fold change (FC) [4]: 0.05 | Activity [24]: Active | Activity [7]: < 20% | fold change (FC) [8]: 0.8 | Activity [9]: Dose-dependent effect | inhibition [10]: 31% | fold change (FC) [11]: 1.35

CCCOC(=O)c1ccc(NC(=O)c2c(O)c3ccccc3n(Cc3ccccc3)c2=O)cc1
max activation [6]: 7%

CCCOC(=O)c1ccc(NC(=O)c2c(O)c3cc(C)ccc3n(CCC)c2=O)cc1
max activation [6]: 85%

CCCCCCn1c(=O)c(C(=O)Nc2ccc(OCC)cc2)c(O)c2ccccc21
max activation [6]: 1%

CCCCCCn1c(=O)c(C(=O)Nc2cccc(C(=O)OCCC)c2)c(O)c2ccccc21
max activation [6]: 2%

CCCCCn1c(=O)c(C(=O)Nc2ccc(C(=O)OCC)cc2)c(O)c2ccccc21
max activation [6]: 76%

CCCCCCn1c(=O)c(C(=O)Nc2cccc(C(=O)OCC)c2)c(O)c2ccccc21
max activation [6]: 1.7%

CCCCCc1nc2ccccc2c(=O)n1NC(=O)c1c(O)c2ccccc2n(CC)c1=O
max activation [6]: 5%

c1ccc2c(Oc3nc(Nc4ccc(N5CCOCC5)cc4)c4ncn(C5CCCCC5)c4n3)cccc2c1
max activation [6]: 78%

CCOC(=O)c1ccc(NC(=O)c2c(O)c3ccccc3n(Cc3ccccc3)c2=O)cc1
max activation [6]: 4%

CCCCCCn1c(=O)c(C(=O)Nc2ccc(C(=O)NCCCC)cc2)c(O)c2ccccc21
max activation [6]: 92%

CCCCCCn1c(=O)c(C(=O)Nc2ccc(C(=O)NCCC)cc2)c(O)c2ccccc21
max activation [6]: 1.6%

CCCOC(=O)c1ccc(NC(=O)c2c(O)c3cc(Cl)ccc3n(CCC)c2=O)cc1
max activation [6]: 41%

C=CCn1c(=O)c(C(=O)Nc2ccc(C(=O)OCCC)cc2)c(O)c2ccccc21
max activation [6]: 22%

CCCOC(=O)c1ccc(NC(=O)c2c(O)c3cc(F)ccc3n(CCC)c2=O)cc1
max activation [6]: 98%

CCCOC(=O)c1ccc(NC(=O)c2c(O)c3ccccc3n(CCC)c2=O)cc1
max activation [6]: 105%

CCCCCCn1c(=O)c(C(=O)Nc2cc(C)cc(C(=O)OCCC)c2)c(O)c2ccccc21
max activation [6]: 3%

CCCCCCn1c(=O)c(C(=O)Nc2ccc(C(=O)OCC)cc2)c(O)c2ccccc21
max activation [6]: 62%

CCCCCCn1c(=O)c(C(=O)Nc2cccc(C(=O)OC(C)(C)C)c2)c(O)c2ccccc21
max activation [6]: 1.3%

CCCCCCn1c(=O)c(C(=O)Nc2ncc([N+](=O)[O-])s2)c(O)c2ccccc21
max activation [6]: 3%

CCCCCn1c(=O)c(C(=O)Nc2ccc(C(=O)OCCC)cc2)c(O)c2ccccc21
max activation [6]: 138%

CCCCCCn1c(=O)c(C(=O)Nc2cccc(C(=O)OCCC)c2C(F)(F)F)c(O)c2ccccc21
max activation [6]: 1.4%

CCCCCCn1c(=O)c(C(=O)Nc2ccc(C(=O)OCc3ccccc3)cc2)c(O)c2ccccc21
max activation [6]: 47%

CCCOC(=O)c1ccc(NC(=O)c2c(O)c3cc(OC)c(OC)cc3n(CCC)c2=O)cc1
Ratio EC50 [1]: 3 | fold change (FC) [2]: 0.27 | fold change (FC) [3]: 0.86 | fold change (FC) [4]: 0.04 | Activity [5]: Active | max activation [6]: 138% | Activity [7]: < 20% | fold change (FC) [8]: 0.81 | Activity [9]: Dose-dependent effect | inhibition [10]: 54% | fold change (FC) [11]: 1.49 | Activity [12]: Active

CCCCCn1c(=O)c(C(=O)Nc2ccc([N+](=O)[O-])cc2)c(O)c2ccccc21
max activation [6]: 5%

CCCCCCn1c(=O)c(C(=O)Nc2ccc(C(=O)OC(C)(C)C)cc2)c(O)c2ccccc21
max activation [6]: 69%

CCCOC(=O)c1ccc(NC(=O)c2c(O)c3cccc4c3n(c2=O)CCC4)cc1
max activation [6]: 38%

CCCCCn1c(=O)c(C(=O)Nc2ccc(C(=O)OCCCC)cc2)c(O)c2ccccc21
max activation [6]: 123%

CCCCn1c(=O)c(C(=O)Nc2ccc(C(=O)OCCC)cc2)c(O)c2ccccc21
max activation [6]: 135%

CCCCCCn1c(=O)c(C(=O)Nc2ccc(C(N)=O)cc2)c(O)c2ccccc21
max activation [6]: 1%

CCCCCCn1c(=O)c(C(=O)Nc2ccc(C(=O)OC(C)C)cc2)c(O)c2ccccc21
max activation [6]: 33%

CCCCCCn1c(=O)c(C(=O)Nc2ccc(C(=O)OCCC)c(Cl)c2)c(O)c2ccccc21
max activation [6]: 11%

CCCOC(=O)c1ccc(NC(=O)c2c(O)c3ccccc3n(C)c2=O)cc1
max activation [6]: 1%

CCCCCCn1c(=O)c(C(=O)Nc2ccc(C(=O)OCCCC)cc2)c(O)c2ccccc21
max activation [6]: 88%
